Experimental data reported in US20220017516A1, “LOX INHIBITORS” (THE INSTITUTE OF CANCER RESEARCH: ROYAL CANCER HOSPITAL, priority 2018, published 2022).

Legend:
Type in all cases: in vivo, mice
[1] = tested on: MDA-MB-231 human breast adenocarcinoma; test: MDA-MB-231 xenografts, primary tumour volume; settings: T/C of average tumour volume; 200 mg/kg po qd; p<0.05
Method: (§1) All procedures involving animals were approved by the Animal Welfare and Ethical Review Body of the Institute of Cancer Research and Cancer Research UK Manchester Institute in accordance with National Home Office regulations under the Animals (Scientific Procedures) Act 1986 and according to the guidelines of the Committee of the National Cancer Research Institute Tumour size was determined by caliper measurements of tumour length, width and depth and volume was calculated as volume=0.5236×length×width×depth (mm).
MDA-MB-231 xenografts. […] Tumours and weights are measured twice weekly using calipers and the animals can be imaged using non invasive method by bioluminescence using IVIS 200 imaging machine, weekly using 150 mg/kg luciferin administrate intraperitoneal or subcutaneous. […] Frozen samples kept at −80 degree centigrade until being analyzed and the fixed samples stained according to desired marker.
(§2) For therapeutic efficacy assessment, the ratio of average tumour volume between compound treated and vehicle control treated (T/C) is calculated. […] The efficacy of LOX inhibitors described in this invention, as measured by T/C in breast cancer models is shown in Table 4 and is significant (p<0.05) for all the data presented.

[2] = tested on: MMTV-PyMT mammary tumours; test: MMTV-PyMT transgenic mouse breast cancer model, primary tumour volume; settings: T/C of average tumour volume; 200 mg/kg po qd; p<0.05
Method: as §1
MMTV-PyMT (Guy et al, 1992) (FVB) female mice were randomized by non-statistical methods to LOX inhibitor treatment groups from day 70 post-birth, when animals had no detectable tumour. Mice were treated daily by oral gavage with LOX inhibitor in vehicle, or daily vehicle (5% DMSO/2.5% Tween20 in water) by oral gavage. Tumour size was determined unblinded by caliper measurements of tumour length, width and depth and volume was calculated as 0.5236×length×width×depth (mm). […]
as §2

[3] = tested on: MMTV-PyMT lung metastases; test: MMTV-PyMT transgenic mouse breast cancer model, lung metastases quantification; settings: T/C of average lung metastases number; 200 mg/kg po qd; p<0.05
Method: MMTV-PyMT (Guy et al, 1992) (FVB) female mice were randomized by non-statistical methods to LOX inhibitor treatment groups from day 70 post-birth, when animals had no detectable tumour. Mice were treated daily by oral gavage with LOX inhibitor in vehicle, or daily vehicle (5% DMSO/2.5% Tween20 in water) by oral gavage. Tumour size was determined unblinded by caliper measurements of tumour length, width and depth and volume was calculated as 0.5236×length×width×depth (mm). In all experiments, mice were humanely killed and mammary tumours and lungs were collected when the primary tumours reached ethical limits or signs of ill health.
For lung metastases quantification, all mouse tissue samples were fixed in 10% formalin (Sigma) and embedded in paraffin. Samples were sectioned and hematoxylin and eosin (H&E) stained. Samples were imaged with a Leica SCN400 slide scanner. […] Lung metastases number was counted and area was measured using ImageScope. […] The ratio of average metastases surface between compound treated and vehicle control treated (T/C) is calculated. The ratio of average metastases numbers between compound treated and vehicle control treated (T/C) is also calculated. […] The antimetastatic efficacy of LOX inhibitors described in this invention, as measured by T/C in a model of breast cancer metastasising to lungs is shown in Table 4 and is significant (p<0.05) for all the data presented.

In the case of `CCOc1ccc(N2C[C@@H]3C[C@H]2CN3C(=O)CS(=O)(=O)CCN)cc1` [drawing 226], the “MDA-MB-231 human breast adenocarcinoma - primary tumour (T/C)” value [1] is reported as 0.54, the “MMT-PyMT breast transgenic model - primary tumour (T/C)” value [2] is reported as 0.6 and the “MMT-PyMT breast transgenic model - metastases a) Count (T/C)” value [3] is reported as “a) 0.14”.
